Measurements taken from patent publication US20080063613A1, “Syndet Bars Having Ultraviolet Radiation Protection” (priority 2004, published 2008).

Experiment: physchem
From the text: Log P is a measure of differential solubility of a compound in two solvents. The log ratio of the concentrations of the solute in the solvent is called Log P or the Partition Coefficient. The most well-known of these partition coefficients is based on the solvents Octanol and Water.

In the case of `CCCCC(CC)COC(=O)C(C#N)=C(c1ccccc1)c1ccccc1` (stereo not shown) [Octocrylene], the logP is reported as about 6.9.
